Experimental data published in publication PMC11289891, “Selection and characterization of a peptide-based complement modulator targeting C1 of the innate immune system” (RSC Chemical Biology, 2024).
Read-outs that look alike come from different tables or passages of the source. One block for each compound: values may come before it. Positions of bridges follow the written chain, without caps; N, C: chain ends. Non-standard residues stand in square brackets, D forms with d. Residues, ends and D or L forms follow the SMILES beside them. *: point of attachment. Biotin = O=C1N[C@H]2[C@H](CS[C@H]2CCCCC(=O)*)N1; Lys(N3) = [N-]=[N+]=NCCCC[C@H](N)C(=O)O

Experiments:
[1] = target: T1, C1q (Homo sapiens, UniProt P02745+P02746+P02747); assay: ELISA for complement activation: C1q recruitment from human serum by immobilised peptide; assay type: binding; conditions: for EC50: 1% human serum in RPMI, four-parameter fit
T1 construct: tissue Complement Technology, Inc; host or cells: normal human serum (pooled), 1% in RPMI medium
T1 sequence (P02745 23-245): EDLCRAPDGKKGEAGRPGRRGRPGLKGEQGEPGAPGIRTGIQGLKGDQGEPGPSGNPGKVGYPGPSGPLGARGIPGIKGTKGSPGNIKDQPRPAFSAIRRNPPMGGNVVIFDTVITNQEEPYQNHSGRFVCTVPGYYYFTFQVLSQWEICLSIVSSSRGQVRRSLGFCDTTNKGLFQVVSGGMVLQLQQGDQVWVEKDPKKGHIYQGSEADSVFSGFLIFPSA
T1 sequence (P02746 28-253): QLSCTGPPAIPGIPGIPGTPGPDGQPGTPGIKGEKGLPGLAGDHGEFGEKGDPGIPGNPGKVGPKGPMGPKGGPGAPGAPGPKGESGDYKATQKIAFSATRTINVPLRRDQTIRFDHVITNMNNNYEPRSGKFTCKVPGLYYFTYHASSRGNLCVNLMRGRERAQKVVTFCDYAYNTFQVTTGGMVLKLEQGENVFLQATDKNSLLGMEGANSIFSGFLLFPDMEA
T1 sequence (P02747 29-245): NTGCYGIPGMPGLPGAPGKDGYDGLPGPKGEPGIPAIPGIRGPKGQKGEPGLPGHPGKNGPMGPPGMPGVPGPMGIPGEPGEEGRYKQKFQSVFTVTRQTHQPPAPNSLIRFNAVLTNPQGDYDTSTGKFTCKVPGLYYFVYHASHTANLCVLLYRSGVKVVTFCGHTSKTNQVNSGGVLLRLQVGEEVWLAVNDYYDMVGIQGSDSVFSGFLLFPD
T1 sequence (P00736 18-705 partner): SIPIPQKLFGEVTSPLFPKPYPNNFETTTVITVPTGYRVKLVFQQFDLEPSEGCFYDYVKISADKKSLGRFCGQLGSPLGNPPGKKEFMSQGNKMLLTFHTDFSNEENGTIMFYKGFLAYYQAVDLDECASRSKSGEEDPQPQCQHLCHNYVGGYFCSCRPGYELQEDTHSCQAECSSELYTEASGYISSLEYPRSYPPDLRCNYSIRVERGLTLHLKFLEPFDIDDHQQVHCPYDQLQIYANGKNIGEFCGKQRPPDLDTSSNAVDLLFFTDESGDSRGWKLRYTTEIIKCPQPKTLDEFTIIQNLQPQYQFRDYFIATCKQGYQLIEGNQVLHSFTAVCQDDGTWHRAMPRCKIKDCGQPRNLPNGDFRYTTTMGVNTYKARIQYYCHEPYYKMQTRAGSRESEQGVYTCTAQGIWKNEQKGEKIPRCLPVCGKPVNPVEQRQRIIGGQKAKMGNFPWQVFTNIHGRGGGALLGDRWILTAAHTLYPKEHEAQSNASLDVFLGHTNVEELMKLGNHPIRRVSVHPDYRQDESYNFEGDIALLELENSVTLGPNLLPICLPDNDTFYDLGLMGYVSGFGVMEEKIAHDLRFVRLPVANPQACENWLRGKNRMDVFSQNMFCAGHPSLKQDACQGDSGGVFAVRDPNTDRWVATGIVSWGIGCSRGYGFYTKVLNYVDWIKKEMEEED
T1 sequence (P09871 16-688 partner): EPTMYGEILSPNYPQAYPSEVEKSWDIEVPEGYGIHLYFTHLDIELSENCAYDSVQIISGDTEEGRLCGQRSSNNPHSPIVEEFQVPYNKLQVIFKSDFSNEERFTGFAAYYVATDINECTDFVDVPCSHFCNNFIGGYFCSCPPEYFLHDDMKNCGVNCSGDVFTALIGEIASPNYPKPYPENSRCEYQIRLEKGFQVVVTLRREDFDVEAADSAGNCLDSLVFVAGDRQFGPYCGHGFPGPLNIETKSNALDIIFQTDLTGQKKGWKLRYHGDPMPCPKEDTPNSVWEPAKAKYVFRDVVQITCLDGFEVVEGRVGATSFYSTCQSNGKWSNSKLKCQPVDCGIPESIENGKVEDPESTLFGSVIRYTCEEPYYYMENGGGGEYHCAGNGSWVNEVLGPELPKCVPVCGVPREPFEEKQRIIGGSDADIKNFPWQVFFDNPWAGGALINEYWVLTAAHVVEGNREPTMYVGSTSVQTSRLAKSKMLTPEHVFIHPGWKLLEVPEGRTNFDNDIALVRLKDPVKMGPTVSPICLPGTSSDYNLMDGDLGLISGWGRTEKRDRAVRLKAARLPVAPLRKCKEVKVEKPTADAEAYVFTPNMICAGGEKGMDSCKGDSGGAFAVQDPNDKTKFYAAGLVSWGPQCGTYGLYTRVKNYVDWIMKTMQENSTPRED
Procedure: Maxisorb Nunc Immunoplates (Thermofisher Scientific, Massachusetts, USA) were coated with streptavidin (Thermofisher Scientific) at 10 μg mL^−1 in 0.1 M Na2CO3, 0.1 M NaHCO3 (coating buffer), pH 9.6 at 50 μL per well and allowed to incubate either at room temperature overnight, or 37 °C for 1 hour. Plates were washed with PBS with 0.05% tween-20 three times. For each following step, samples were incubated at 37 °C for 1 hour and subsequently washed with the PBS-T solution, we denote this as incubation and wash in the latter parts of the text. After streptavidin binding, wells were blocked with 100 μL of 0.1 M spermidine (Thermofisher Scientific) in distilled water incubated and washed. Then peptides were incubated in 50 μL PBS (as with all the following steps) with 0.05% Tween-20 (PBS-T) to create a peptide presenting surface and incubated and washed. In all activation assays, peptides are modified with a biotin to achieve binding to streptavidin. Note that in certain instances the peptides are initially modified with an azide. In such conditions a biotin-PEG4-DBCO (Jena Bioscience GmbH, Germany) was co-incubated with the peptides at 25 mol% excess of biotin linker to create a biotin modified peptide. This conjugation reaction took place in the plate. Hereafter the wells were incubated with 1% normal human serum (NHS) (Complement Technology, Inc., Texas, USA) in RPMI medium (Roswell Park Memorial Institute 1640 medium), then incubated and washed. Following these steps, complement components C1q or C5b-9 were detected. Primary Rabbit anti-C1q or Mouse anti C5b-9 (Dako, Denmark) was added to PBS, 0.05% Tween-20, 0.1% BSA (PBS-BT) in 1 : 2000 and 1 : 333 dilution, respectively, then incubated and washed. Next, goat anti-rabbit and anti-mouse antibodies (Dako, Denmark) modified with horseradish peroxidase (HRP) were diluted 1 : 5000 in PBS-T and added to the plates, then incubated and washed. To detect the HRP on the secondary antibody 2.5 mg mL^−1 ABTS (2′-azino-bis(3-ethylbenzothiazoline-6-sulfonic acid)) was added in citric acid buffer (0.15 M, pH 4.2) (ABTS buffer) containing 0.15 (v/v%) H2O2 was used and samples were incubated at room temperature for 30 minutes. Absorption measurements at 415 nm were performed on a CLARIOstar microplate reader (BMG Labtech, Offenburg, Germany).

[2] = test system: C1q binding to pooled IgG; assay: Competition ELISA on pooled human IgG, C1q detected; conditions: peptide incubated with 1% human serum, pooled IgG-coated plate, two technical replicates
Procedure: (§1) Materials, including buffers and blocking agent, were the same as for the activation assay, unless stated otherwise. Incubation and wash steps between added new components was kept identical to the section “Enzyme-linked immunosorbent assay (ELISA) for complement activation” above. To determine the competition with pooled human IgG (Sigma-Aldrich, USA), Maxisorb plates were coated with 10 μg mL^−1 of IgG pooled from human serum, incubated, washed and blocked with spermidine. Peptides were incubated with 1% normal human serum (pooled, Complement Technology) for at least 30 minutes before adding to the IgG coated plates. DMSO controls and no serum controls were added. Human serum with and without peptides was added to the plates and subsequent complement inhibition was determined by detecting the presence of C1q or C5b-9. Data shown in the graphs is normalized to the maximum signal of the DMSO control and the minimal signal of the no serum control. Absorption measurements at 415 were performed on a CLARIOstar microplate reader (BMG Labtech, Offenburg, Germany).

[3] = test system: C5b-9 deposition by pooled IgG; assay: Competition ELISA on pooled human IgG, C5b-9 detected; assay type: biochemical
Procedure: as §1

EC50 ([1]; cL3-Az conjugated to biotin-DBCO linker on streptavidin plate, 1 hour 37 °C, single technical replicate, CI 5.2-7.4, R2 0.99, read-out: EC50 of C1q recruitment, Fig. S4): 6.2 µM | EC50 of C1 recruitment compared with the biotinylated variant ([1]; cL3-Az via biotin-DBCO linker on streptavidin plate, 1% human serum): comparable to the biotinylated variant
SMILES: CC[C@H](C)[C@@H]1NC(=O)[C@H](Cc2ccccc2)NC(=O)[C@H](CCC(N)=O)NC(=O)[C@H](CC(C)C)NC(=O)[C@H]([C@@H](C)O)NC(=O)[C@H](Cc2ccccc2)NC(=O)[C@@H]2CCCN2C(=O)[C@H](CC(=O)O)NC(=O)[C@@H]2CCCN2C(=O)[C@H](Cc2ccc(O)cc2)NC(=O)[C@H](Cc2ccccc2)NC(=O)[C@H]([C@@H](C)O)NC(=O)[C@H](C(C)C)NC(=O)[C@H]([C@@H](C)O)NC(=O)[C@H](Cc2ccc(O)cc2)NC(=O)CSC[C@@H](C(=O)NCC(=O)N[C@@H](CO)C(=O)N[C@@H](CCCCN=[N+]=[N-])C(=O)NCC(=O)O)NC(=O)[C@H](C)NC1=O [cL3-Az] ({CH2CO}-YTVTFYPDPFTLQFIACGS[Lys(N3)]G-OH; thioether N-17)

IC50 ([3]; data of Fig. 6b, four-parameter fit, CI 1.01-2.13, R2 0.94, read-out: IC50, competition with IgG, Fig. S18 fit): 1.5 µM
SMILES: CC[C@H](C)[C@@H]1NC(=O)[C@H](Cc2ccccc2)NC(=O)[C@H](CCC(N)=O)NC(=O)[C@H](CC(C)C)NC(=O)[C@H]([C@@H](C)O)NC(=O)[C@H](Cc2ccccc2)NC(=O)[C@@H]2CCCN2C(=O)[C@H](CC(=O)O)NC(=O)[C@@H]2CCCN2C(=O)[C@H](Cc2ccc(O)cc2)NC(=O)[C@H](Cc2ccccc2)NC(=O)[C@H]([C@@H](C)O)NC(=O)[C@H](C(C)C)NC(=O)[C@H]([C@@H](C)O)NC(=O)[C@@H](Cc2ccc(O)cc2)NC(=O)CSC[C@@H](C(=O)NCC(=O)N[C@@H](CO)C(=O)N[C@@H](CCCCNC(=O)CCCC[C@@H]2SC[C@@H]3NC(=O)N[C@@H]32)C(=O)NCC(=O)O)NC(=O)[C@H](C)NC1=O [inv-cL3] ({CH2CO}-[dY]TVTFYPDPFTLQFIACGSK(Biotin)G-OH; thioether N-17; C-terminus assumed)
Inhibition of C1q binding to pooled IgG [2]: minor inhibition of C1q binding to pooled IgG at high concentrations | Inhibition of C5b-9 deposition by pooled IgG (qualitative, rank) ([3]; peptide incubated with 1% human serum, pooled IgG-coated plate, two technical replicates): significantly worse than full-length cL3

EC50 ([1]; cL3-Bt titrated on streptavidin plate, technical duplicate on one plate (data of Fig. 3a), CI ND, R2 0.99, read-out: EC50 of C1q recruitment, Fig. S2 graph on the right): 6.2 µM | EC50 ([1]; cL3-Bt titrated on streptavidin plate, technical duplicate on one plate, CI 7.4-9.1, R2 0.99, read-out: EC50 of C1q recruitment, Fig. S2 graph in the middle): 8.2 µM | EC50 ([1]; cL3-Bt titrated on streptavidin plate, technical duplicate on one plate, CI ND, R2 0.98, read-out: EC50 of C1q recruitment, Fig. S2 graph on the left): 2.68 µM
SMILES: CC[C@H](C)[C@@H]1NC(=O)[C@H](Cc2ccccc2)NC(=O)[C@H](CCC(N)=O)NC(=O)[C@H](CC(C)C)NC(=O)[C@H]([C@@H](C)O)NC(=O)[C@H](Cc2ccccc2)NC(=O)[C@@H]2CCCN2C(=O)[C@H](CC(=O)O)NC(=O)[C@@H]2CCCN2C(=O)[C@H](Cc2ccc(O)cc2)NC(=O)[C@H](Cc2ccccc2)NC(=O)[C@H]([C@@H](C)O)NC(=O)[C@H](C(C)C)NC(=O)[C@H]([C@@H](C)O)NC(=O)[C@H](Cc2ccc(O)cc2)NC(=O)CSC[C@@H](C(=O)NCC(=O)N[C@@H](CO)C(=O)N[C@@H](CCCCNC(=O)CCCC[C@@H]2SC[C@@H]3NC(=O)N[C@@H]32)C(=O)NCC(=O)O)NC(=O)[C@H](C)NC1=O [cL3-Bt] ({CH2CO}-YTVTFYPDPFTLQFIACGSK(Biotin)G-OH; thioether N-17)
